# pIC50: −log10 of the molar value. *1 amine or outer side, *2 acyl side, *3 side chain or, on linkers, in order; H or OH if unused. Where a SMILES comes first, the peptide text is derived from it. Bridges are numbered along the chain shown (N, C = ends). [ ]: non-standard residue; d: D form. The star is where a group is joined. Phe(3-CF3) = N[C@@H](Cc1cccc(C(F)(F)F)c1)C(=O)O; Ala(morpholin-4-yl) = N[C@@H](CN1CCOCC1)C(=O)O; Phe(4-COOH) = N[C@@H](Cc1ccc(C(=O)O)cc1)C(=O)O; Bip = N[C@@H](Cc1ccc(-c2ccccc2)cc1)C(=O)O; γGlu = O=C(O)[C@H](CCC(=O)[*:2])N[*:1]; Abu(3S-NH2) = C[C@H](N)[C@H](N)C(=O)O; NH(CH2)12COOH = O=C(O)CCCCCCCCCCCCN*; Val(3-OH) = CC(C)(O)[C@H](N)C(=O)O; Cha = N[C@@H](CC1CCCCC1)C(=O)O; Cit = NC(=O)NCCC[C@H](N)C(=O)O; Carboxymethyl = O=C(O)C*; NMeA = CN[C@@H](C)C(=O)O; Dab = NCC[C@H](N)C(=O)O; AEEA = NCCOCCOCC(=O)O
# Biological target: T1, PD-1/PD-L1 interaction (PE-labeled human PD-L1-Ig binding to Jurkat cell line over-expressing human PD-1) (Homo sapiens, UniProt Q15116)
# T1 construct: expressed in transfected cells; host or cells: Jurkat
# Assay: Jurkat-PD-1 Cell Binding High-Content Screening Assay (CBA)
# Details: Jurkat-hPD-1 cells, PE-labeled PD-L1-Ig 20 nM final; read-out: Jurkat HPD1 PDL1 IC50
# Summary of the method: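 Read-out: high-content imaging of cell-bound PE fluorescence, with Hoechst 33342 nuclear counterstain after paraformaldehyde fixation. Before labeled ligand (20 nM final, 1 h) was added, compound sat on the cells for 2 h at 37 °C in DMEM/10% FCS.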
# T1 sequence (Q15116 25-288): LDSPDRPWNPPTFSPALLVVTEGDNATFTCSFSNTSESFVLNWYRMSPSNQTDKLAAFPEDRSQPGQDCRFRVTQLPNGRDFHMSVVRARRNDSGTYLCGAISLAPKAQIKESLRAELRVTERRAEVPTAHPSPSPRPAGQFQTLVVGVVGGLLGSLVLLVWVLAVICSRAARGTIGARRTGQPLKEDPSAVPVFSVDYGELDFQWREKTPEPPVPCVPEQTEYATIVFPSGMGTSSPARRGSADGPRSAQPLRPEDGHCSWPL
row,pIC50,SMILES
1,7.30,CC(=O)NCCCC[C@@H]1NC(=O)[C@H](C(C)(C)O)NC(=O)[C@H](CC2CCCCC2)NC(=O)[C@H](CCN)NC(=O)[C@@H](CC(C)C)NC(=O)[C@H](C)N(C)C(=O)[C@H](CCC(N)=O)NC(=O)[C@H](Cc2ccc(-c3ccccc3)cc2)NC(=O)[C@H](Cc2ccc(C(=O)O)cc2)NC(=O)[C@H](Cc2cccc(C(F)(F)F)c2)NC(=O)[C@H](CC(=O)O)NC(=O)[C@H](Cc2ccc(OCC(=O)O)cc2)NC(=O)[C@H](Cc2ccc(C(=O)O)cc2)NC(=O)CSC[C@@H](C(=O)N[C@@H](CCN)C(=O)NCCOCCOCC(=O)N[C@@H](CCC(=O)NCCOCCOCC(=O)NCCCCCCCCCCCCC(=O)O)C(=O)O)NC1=O [Example 1185] ({CH2CO}-[Phe(4-COOH)]Y(Carboxymethyl)D[Phe(3-CF3)][Phe(4-COOH)][Bip]Q[NMeA][dL][Dab][Cha][Val(3-OH)]K(Ac)C[Dab][AEEA][γGlu][AEEA]-{NH(CH2)12COOH}; thioether N-14)
2,6.96,CC(C)C[C@H]1NC(=O)[C@H](C)N(C)C(=O)[C@H](CCCNC(N)=O)NC(=O)[C@H](Cc2ccc(-c3ccccc3)cc2)NC(=O)[C@H](Cc2ccc(C(=O)O)cc2)NC(=O)[C@H](Cc2cccc(C(F)(F)F)c2)NC(=O)[C@H](CC(=O)O)NC(=O)[C@H](Cc2ccc(OCC(=O)O)cc2)NC(=O)[C@H](Cc2ccc(C(=O)O)cc2)NC(=O)CSC[C@@H](C(=O)N[C@@H](CCN)C(=O)NCCOCCOCC(=O)N[C@@H](CCC(=O)NCCOCCOCC(=O)NCCCCCCCCCCCCC(=O)O)C(=O)O)NC(=O)[C@H](CC(=O)O)NC(=O)[C@H](C(C)(C)O)NC(=O)[C@H](CC2CCCCC2)NC(=O)[C@H](CCN)NC1=O [Example 1186] ({CH2CO}-[Phe(4-COOH)]Y(Carboxymethyl)D[Phe(3-CF3)][Phe(4-COOH)][Bip][Cit][NMeA][dL][Dab][Cha][Val(3-OH)]DC[Dab][AEEA][γGlu][AEEA]-{NH(CH2)12COOH}; thioether N-14)
3,7.42,CC(C)C[C@H]1NC(=O)[C@H](C)N(C)C(=O)[C@H](CCCNC(N)=O)NC(=O)[C@H](Cc2ccc(-c3ccccc3)cc2)NC(=O)[C@H](Cc2ccc(C(=O)O)cc2)NC(=O)[C@H](Cc2cccc(C(F)(F)F)c2)NC(=O)[C@H](CC(=O)O)NC(=O)[C@H](Cc2ccc(OCC(=O)O)cc2)NC(=O)[C@H](Cc2ccc(C(=O)O)cc2)NC(=O)CSC[C@@H](C(=O)N[C@@H](CCN)C(=O)NCCOCCOCC(=O)N[C@@H](CCC(=O)NCCOCCOCC(=O)NCCCCCCCCCCCCC(=O)O)C(=O)O)NC(=O)[C@H](CO)NC(=O)[C@H](C(C)(C)O)NC(=O)[C@H](CC2CCCCC2)NC(=O)[C@H](CCN)NC1=O [Example 1187] ({CH2CO}-[Phe(4-COOH)]Y(Carboxymethyl)D[Phe(3-CF3)][Phe(4-COOH)][Bip][Cit][NMeA][dL][Dab][Cha][Val(3-OH)]SC[Dab][AEEA][γGlu][AEEA]-{NH(CH2)12COOH}; thioether N-14)
4,7.69,CC(C)C[C@H]1NC(=O)[C@H](C)N(C)C(=O)[C@H](CCC(N)=O)NC(=O)[C@H](Cc2ccc(-c3ccccc3)cc2)NC(=O)[C@H](Cc2ccc(C(=O)O)cc2)NC(=O)[C@H](Cc2cccc(C(F)(F)F)c2)NC(=O)[C@H](CC(=O)O)NC(=O)[C@H](Cc2ccc(OCC(=O)O)cc2)NC(=O)[C@H](CN2CCOCC2)NC(=O)CSC[C@@H](C(=O)N[C@@H](CCN)C(=O)NCCCCCCCCCCCCC(=O)O)NC(=O)[C@H](Cc2c[nH]cn2)NC(=O)[C@H](C(C)(C)O)NC(=O)[C@H](CC2CCCCC2)NC(=O)[C@H](CCN)NC1=O [Example 1188] ({CH2CO}-[Ala(morpholin-4-yl)]Y(Carboxymethyl)D[Phe(3-CF3)][Phe(4-COOH)][Bip]Q[NMeA][dL][Dab][Cha][Val(3-OH)]HC[Dab]-{NH(CH2)12COOH}; thioether N-14)
5,7.74,CC(C)C[C@H]1NC(=O)[C@H](C)N(C)C(=O)[C@H](CCC(N)=O)NC(=O)[C@H](Cc2ccc(-c3ccccc3)cc2)NC(=O)[C@H](Cc2ccc(C(=O)O)cc2)NC(=O)[C@H](Cc2cccc(C(F)(F)F)c2)NC(=O)[C@H](CC(=O)O)NC(=O)[C@H](Cc2ccc(OCC(=O)O)cc2)NC(=O)[C@H]([C@H](C)N)NC(=O)CSC[C@@H](C(=O)N[C@@H](CCN)C(=O)NCCCCCCCCCCCCC(=O)O)NC(=O)[C@H](CO)NC(=O)[C@H](C(C)(C)O)NC(=O)[C@H](CC2CCCCC2)NC(=O)[C@H](CCN)NC1=O [Example 1190] ({CH2CO}-[Abu(3S-NH2)]Y(Carboxymethyl)D[Phe(3-CF3)][Phe(4-COOH)][Bip]Q[NMeA][dL][Dab][Cha][Val(3-OH)]SC[Dab]-{NH(CH2)12COOH}; thioether N-14)
6,8.13,CC(=O)NCCCC[C@@H]1NC(=O)[C@H](C(C)(C)O)NC(=O)[C@H](CC2CCCCC2)NC(=O)[C@H](CCN)NC(=O)[C@@H](CC(C)C)NC(=O)[C@H](C)N(C)C(=O)[C@H](CCC(N)=O)NC(=O)[C@H](Cc2ccc(-c3ccccc3)cc2)NC(=O)[C@H](Cc2ccc(C(=O)O)cc2)NC(=O)[C@H](Cc2cccc(C(F)(F)F)c2)NC(=O)[C@H](CC(=O)O)NC(=O)[C@H](Cc2ccc(OCC(=O)O)cc2)NC(=O)[C@H]([C@H](C)N)NC(=O)CSC[C@@H](C(=O)N[C@@H](CCN)C(=O)NCCCCCCCCCCCCC(=O)O)NC1=O [Example 1191] ({CH2CO}-[Abu(3S-NH2)]Y(Carboxymethyl)D[Phe(3-CF3)][Phe(4-COOH)][Bip]Q[NMeA][dL][Dab][Cha][Val(3-OH)]K(Ac)C[Dab]-{NH(CH2)12COOH}; thioether N-14)
7,7.76,CC(C)C[C@H]1NC(=O)[C@H](C)N(C)C(=O)[C@H](CCC(N)=O)NC(=O)[C@H](Cc2ccc(-c3ccccc3)cc2)NC(=O)[C@H](Cc2ccc(C(=O)O)cc2)NC(=O)[C@H](Cc2cccc(C(F)(F)F)c2)NC(=O)[C@H](CC(=O)O)NC(=O)[C@H](Cc2ccc(OCC(=O)O)cc2)NC(=O)[C@H]([C@H](C)N)NC(=O)CSC[C@@H](C(=O)N[C@@H](CCN)C(=O)NCCCCCCCCCCCCC(=O)O)NC(=O)[C@H](Cc2c[nH]cn2)NC(=O)[C@H](C(C)(C)O)NC(=O)[C@H](CC2CCCCC2)NC(=O)[C@H](CCN)NC1=O [Example 1192] ({CH2CO}-[Abu(3S-NH2)]Y(Carboxymethyl)D[Phe(3-CF3)][Phe(4-COOH)][Bip]Q[NMeA][dL][Dab][Cha][Val(3-OH)]HC[Dab]-{NH(CH2)12COOH}; thioether N-14)
8,7.81,CC(C)C[C@H]1NC(=O)[C@H](C)N(C)C(=O)[C@H](CCCNC(N)=O)NC(=O)[C@H](Cc2ccc(-c3ccccc3)cc2)NC(=O)[C@H](Cc2ccc(C(=O)O)cc2)NC(=O)[C@H](Cc2cccc(C(F)(F)F)c2)NC(=O)[C@H](CC(=O)O)NC(=O)[C@H](Cc2ccc(OCC(=O)O)cc2)NC(=O)[C@H](CN2CCOCC2)NC(=O)CSC[C@@H](C(=O)N[C@@H](CCN)C(=O)NCCCCCCCCCCCCC(=O)O)NC(=O)[C@H](Cc2c[nH]cn2)NC(=O)[C@H](C(C)(C)O)NC(=O)[C@H](CC2CCCCC2)NC(=O)[C@H](CCN)NC1=O [Example 1193] ({CH2CO}-[Ala(morpholin-4-yl)]Y(Carboxymethyl)D[Phe(3-CF3)][Phe(4-COOH)][Bip][Cit][NMeA][dL][Dab][Cha][Val(3-OH)]HC[Dab]-{NH(CH2)12COOH}; thioether N-14)
9,8.10,CC(C)C[C@H]1NC(=O)[C@H](C)N(C)C(=O)[C@H](CCCNC(N)=O)NC(=O)[C@H](Cc2ccc(-c3ccccc3)cc2)NC(=O)[C@H](Cc2ccc(C(=O)O)cc2)NC(=O)[C@H](Cc2cccc(C(F)(F)F)c2)NC(=O)[C@H](CC(=O)O)NC(=O)[C@H](Cc2ccc(OCC(=O)O)cc2)NC(=O)[C@H]([C@H](C)N)NC(=O)CSC[C@@H](C(=O)N[C@@H](CCN)C(=O)NCCCCCCCCCCCCC(=O)O)NC(=O)[C@H](CCC(=O)O)NC(=O)[C@H](C(C)C)NC(=O)[C@H](CC2CCCCC2)NC(=O)[C@H](CCN)NC1=O [Example 1194] ({CH2CO}-[Abu(3S-NH2)]Y(Carboxymethyl)D[Phe(3-CF3)][Phe(4-COOH)][Bip][Cit][NMeA][dL][Dab][Cha]VEC[Dab]-{NH(CH2)12COOH}; thioether N-14)
10,7.72,CC(C)C[C@H]1NC(=O)[C@H](C)N(C)C(=O)[C@H](CCCNC(N)=O)NC(=O)[C@H](Cc2ccc(-c3ccccc3)cc2)NC(=O)[C@H](Cc2ccc(C(=O)O)cc2)NC(=O)[C@H](Cc2cccc(C(F)(F)F)c2)NC(=O)[C@H](CC(=O)O)NC(=O)[C@H](Cc2ccc(OCC(=O)O)cc2)NC(=O)[C@H]([C@H](C)N)NC(=O)CSC[C@@H](C(=O)N[C@@H](CCN)C(=O)NCCCCCCCCCCCCC(=O)O)NC(=O)[C@H](Cc2c[nH]cn2)NC(=O)[C@H](C(C)(C)O)NC(=O)[C@H](CC2CCCCC2)NC(=O)[C@H](CCN)NC1=O [Example 1197] ({CH2CO}-[Abu(3S-NH2)]Y(Carboxymethyl)D[Phe(3-CF3)][Phe(4-COOH)][Bip][Cit][NMeA][dL][Dab][Cha][Val(3-OH)]HC[Dab]-{NH(CH2)12COOH}; thioether N-14)
11,7.71,CC(C)C[C@H]1NC(=O)[C@H](C)N(C)C(=O)[C@H](Cc2ccc(C(=O)O)cc2)NC(=O)[C@H](Cc2ccc(-c3ccccc3)cc2)NC(=O)[C@H](Cc2ccc(C(=O)O)cc2)NC(=O)[C@H](Cc2cccc(C(F)(F)F)c2)NC(=O)[C@H](CC(=O)O)NC(=O)[C@H](Cc2ccc(OCC(=O)O)cc2)NC(=O)[C@H](CN2CCOCC2)NC(=O)CSC[C@@H](C(=O)N[C@@H](CCN)C(=O)NCCCCCCCCCCCCC(=O)O)NC(=O)[C@H](CCC(=O)O)NC(=O)[C@H](C(C)C)NC(=O)[C@H](CC2CCCCC2)NC(=O)[C@H](CCN)NC1=O [Example 1198] ({CH2CO}-[Ala(morpholin-4-yl)]Y(Carboxymethyl)D[Phe(3-CF3)][Phe(4-COOH)][Bip][Phe(4-COOH)][NMeA][dL][Dab][Cha]VEC[Dab]-{NH(CH2)12COOH}; thioether N-14)

# From US20260070945A1, “MACROCYCLIC IMMUNOMODULATORS” (Bristol-Myers Squibb Company, priority 2022, published 2026)
